These results are taken from ChEMBL document CHEMBL1126512, “Synthesis and antitumor evaluation of water soluble taxol phosphates” (Bioorg Med Chem Lett, 1993).

Series [1] relates to Mus musculus. Put plainly: Antitumor activity against M109 tumor murine lung carcinoma infected mice after ip administration using DMSO an water as vehicle at a dose of 30 mg/kg/inj. Type of series: functional. To be noted: route intraperitoneal.
Series [2] concerns Mus musculus. Nature of the series: Antitumor activity against M109 tumor murine lung carcinoma infected mice after ip administration using DMSO an saline as vehicle at a dose of 50 mg/kg/inj. Conditions: route intraperitoneal. Type of series: functional.
For series [3], the system named is Mus musculus. Put plainly: Antitumor activity against M109 tumor murine lung carcinoma infected mice after ip administration using DMSO an water as vehicle at a dose of 25 mg/kg/inj. Format: functional. To be noted: route intraperitoneal.
Series [4] relates to Mus musculus. Nature of the series: Antitumor activity against M109 tumor murine lung carcinoma infected mice after ip administration using DMSO an saline as vehicle at a dose of 30 mg/kg/inj. Type of series: functional. Conditions: route intraperitoneal.
Series [5] is described as follows: Solubility was determined; value ranges from 6-7. Format: physicochemical.
Series [6] can be described thus: Solubility was determined. Format: physicochemical.
Series [7] concerns Mus musculus. Put plainly: Antitumor activity against M109 tumor murine lung carcinoma infected mice after ip administration using DMSO an water as vehicle at a dose of 50 mg/kg/inj. Type of series: functional. Conditions: route intraperitoneal.
Series [8] relates to Mus musculus. Nature of the series: Antitumor activity against M109 tumor murine lung carcinoma infected mice after ip administration using DMSO an water as vehicle at a dose of 10 mg/kg/inj. Type of series: functional. Conditions: route intraperitoneal.
Series [9] has as its system Mus musculus. Put plainly: Antitumor activity against M109 tumor murine lung carcinoma infected mice after ip administration using DMSO an saline as vehicle at a dose of 10 mg/kg/inj. Format: functional. To be noted: route intraperitoneal.
Series [10] has as its system Mus musculus. Nature of the series: Antitumor activity against M109 tumor murine lung carcinoma infected mice after ip administration using DMSO an saline as vehicle at a dose of 25 mg/kg/inj; 1/6 mice cured. Type of series: functional. To be noted: route intraperitoneal.
Series [11] concerns Mus musculus. Nature of the series: Antitumor activity against M109 tumor murine lung carcinoma infected mice after ip administration using DMSO an water as vehicle at a dose of 25 mg/kg/inj; 1/6 mice cured. Format: functional. To be noted: route intraperitoneal.

≈ marks a conversion by molar mass, not a printed value.

In the case of `CC(=O)O[C@H]1C(=O)[C@]2(C)[C@@H](OP(=O)([O-])[O-])C[C@H]3OC[C@@]3(OC(C)=O)[C@H]2[C@H](OC(=O)c2ccccc2)[C@]2(O)C[C@H](OC(=O)[C@H](O)[C@@H](NC(=O)c3ccccc3)c3ccccc3)C(C)=C1C2(C)C.[Na+].[Na+]`, the “Max T/C” value in the series on Mus musculus [1] was 123.

As for `CC(=O)O[C@H]1C(=O)[C@@]2(C)[C@H]([C@H](OC(=O)c3ccccc3)[C@]3(O)C[C@H](OC(=O)[C@H](OP(=O)(OCc4ccccc4)OCc4ccccc4)[C@@H](NC(=O)c4ccccc4)c4ccccc4)C(C)=C1C3(C)C)[C@]1(OC(C)=O)CO[C@@H]1C[C@@H]2O`, the “Max T/C” value in the series on Mus musculus [2] was 107.

For the compound `CC(=O)O[C@H]1C(=O)[C@@]2(C)[C@H]([C@H](OC(=O)c3ccccc3)[C@]3(O)C[C@H](OC(=O)[C@H](OP(=O)([O-])[O-])[C@@H](NC(=O)c4ccccc4)c4ccccc4)C(C)=C1C3(C)C)[C@]1(OC(C)=O)CO[C@@H]1C[C@@H]2O.[Na+].[Na+]`, the “Max T/C” value with Mus musculus [3] was determined as 140.

Consider `CC(=O)O[C@H]1C(=O)[C@]2(C)[C@@H](OP(=O)([O-])[O-])C[C@H]3OC[C@@]3(OC(C)=O)[C@H]2[C@H](OC(=O)c2ccccc2)[C@]2(O)C[C@H](OC(=O)[C@H](OP(=O)([O-])[O-])[C@@H](NC(=O)c3ccccc3)c3ccccc3)C(C)=C1C2(C)C.[Na+].[Na+].[Na+].[Na+]`, for which, in the series with Mus musculus [4], the “Max T/C” value stood at 103.

The compound `CC(=O)O[C@@]12CO[C@@H]1C[C@H](O)[C@@]1(C)C(=O)[C@H](O)C3=C(C)[C@@H](OC(=O)[C@H](O)[C@@H](NC(=O)OC(C)(C)C)c4ccccc4)C[C@@](O)([C@@H](OC(=O)c4ccccc4)[C@H]21)C3(C)C.O.O.O` [DOCETAXEL] came in with a solubility in [5] of 6 µg/mL.

Consider `CC(=O)O[C@H]1C(=O)[C@@]2(C)[C@H]([C@H](OC(=O)c3ccccc3)[C@]3(O)C[C@H](OC(=O)[C@H](O)[C@@H](NC(=O)c4ccccc4)c4ccccc4)C(C)=C1C3(C)C)[C@]1(OC(C)=O)CO[C@@H]1C[C@@H]2O` [PACLITAXEL], for which the solubility in series [6] stood at 0.25 µg/mL (≈ 0.293 µM). Also, the “Max T/C” value was found to be 270 with Mus musculus [7]; 190 with Mus musculus [8]; 190 with Mus musculus [9]; 270 in the series on Mus musculus [2]; 240 in the series with Mus musculus [10]; 240 with Mus musculus [11].

For orientation: solubility means how much of the substance goes into solution per volume. Higher therefore signals much dissolved substance.
